# Test results published in patent publication US20240238423A9, “TETRAHYDROISOQUINOLINE HETEROBIFUNCTIONAL BCL-XL DEGRADERS” (Treeline Biosciences, Inc., priority 2022, published 2024).
# Where two headings read alike, the source gives them in different places.
# Molecular target: T1, Human BCL-XL protein (N-terminal HiBiT tagged BCL-XL in HT1080 cells) (Homo sapiens, UniProt Q07817)
# T1 construct: expressed in transfected cells; host or cells: HT-1080 (ATCC CCL-121), stably transduced with lentivirus pLV-UBC-N-HiBiT-BCL-XL-PGK-puro and selected with puromycin
# T1 sequence (Q07817 whole entry): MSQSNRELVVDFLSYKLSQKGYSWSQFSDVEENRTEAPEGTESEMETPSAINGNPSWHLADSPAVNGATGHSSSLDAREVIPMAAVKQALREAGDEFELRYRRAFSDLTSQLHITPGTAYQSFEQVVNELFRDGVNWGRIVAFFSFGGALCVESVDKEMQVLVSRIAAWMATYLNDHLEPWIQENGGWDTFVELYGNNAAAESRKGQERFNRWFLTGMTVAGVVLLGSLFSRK
# Test: HiBiT based degradation assay
# Type: cell-based
# Conditions: HT1080 cells expressing HiBiT-BCL-XL; for Ymin (6 h) / Ymin (24 h): BCL-XL degradation normalized with DMSO control; for DC50: BCL-XL degradation
# How it was run: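 HT1080 cells stably transduced by lentivirus with N-terminally HiBiT-tagged human BCL-XL and kept under 1 μg/mL puromycin selection were seeded at three thousand cells per well in 40 μL RPMI 1640 into 384-well plates pre-spotted with compounds across a concentration range. Luminescence was read on a PHERAstar FSX, normalized to DMSO, and fitted with a four-parameter logistic model.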
Ymin (6 h),Ymin (24 h),"DC50 (6 h, read-out: EC50 (6 h)) [nM]","DC50 (24 h, read-out: EC50 (24 h)) [nM]",SMILES
C (Ymin ≥ 70%),B (50% ≤ Ymin < 70%),1000 to 10000,100 to 1000,"Cc1c(OCCCN2CCN(CC(=O)Nc3cccc4c(C5CCC(=O)NC5=O)nn(C)c34)[C@@H](C(F)(F)F)C2)cccc1-c1ccc(N2CCc3cccc(C(=O)Nc4nc5ccccc5s4)c3C2)nc1C(=O)O (stereo partly drawn) [Compound 218a, 6-(8-(benzo[d]thiazol-2-ylcarbamoyl)-3,4-dihydroisoquinolin-2(1H)-yl)-3-(3-(3-((3R)-4-(2-((3-(2,6-dioxopiperidin-3-yl)-1-methyl-1H-indazol-7-yl)amino)-2-oxoethyl)-3-(trifluoromethyl)piperazin-1-yl)propoxy)-2-methylphenyl)picolinic acid]"
–,A (Ymin < 50%),–,< 100,"Cc1c(O[C@H]2CC[C@H](CCCCN3CCN(c4ccc5c(C6CCC(=O)NC6=O)nn(C)c5c4)[C@@H](C)C3)CC2)cccc1-c1ccc(N2CCc3cccc(C(=O)Nc4nc5ccccc5s4)c3C2)nc1C(=O)O (stereo partly drawn) [Compound 300b, 6-(8-(benzo[d]thiazol-2-ylcarbamoyl)-3,4-dihydroisoquinolin-2(1H)-yl)-3-(3-(((1r,4r)-4-(4-((3S)-4-(3-(2,6-dioxopiperidin-3-yl)-1-methyl-1H-indazol-6-yl)-3-methylpiperazin-1-yl)butyl)cyclohexyl)oxy)-2-methylphenyl)picolinic acid]"
–,A (Ymin < 50%),–,< 100,"Cc1c(OCCCC2CCN(CCN3CCC(c4ccc5c(C6CCC(=O)NC6=O)nn(C)c5c4)CC3)CC2)cccc1-c1ccc(N2CCc3cccc(C(=O)Nc4nc5ccccc5s4)c3C2)nc1C(=O)O (stereo not shown) [Compound 255, 6-[8-(1,3-benzothiazol-2-ylcarbamoyl)-3,4-dihydro-1H-isoquinolin-2-yl]-3-[3-[3-[1-[2-[4-[3-(2,6-dioxo-3-piperidyl)-1-methyl-indazol-6-yl]-1-piperidyl]ethyl]-4-piperidyl]propoxy]-2-methyl-phenyl]pyridine-2-carboxylic acid]"
A (Ymin < 50%),A (Ymin < 50%),< 100,< 100,"Cc1c(CCCCN2CCN(CC(=O)Nc3ccc4c(C5CCC(=O)NC5=O)nn(C)c4c3)CC2)cccc1-c1ccc(N2CCc3cccc(C(=O)Nc4nc5ccccc5s4)c3C2)nc1C(=O)O (stereo not shown) [Compound 130, 6-[8-(1,3-Benzothiazol-2-ylcarbamoyl)-3,4-dihydro-1H-isoquinolin-2-yl]-3-[3-[4-[4-[2-[[3-(2,6-dioxo-3-piperidyl)-1-methyl-indazol-6-yl]amino]-2-oxo-ethyl]piperazin-1-yl]butyl]-2-methyl-phenyl]pyridine-2-carboxylic acid]"
–,B (50% ≤ Ymin < 70%),–,< 100,"Cc1c(O[C@H]2CC[C@H](CC(=O)N3CCN(c4ccc5c(C6CCC(=O)NC6=O)nn(C)c5c4)CC3)CC2)cccc1-c1ccc(N2CCc3cccc(C(=O)Nc4nc5ccccc5s4)c3C2)nc1C(=O)O (stereo partly shown) [Compound 176a, 6-(8-(benzo[d]thiazol-2-ylcarbamoyl)-3,4-dihydroisoquinolin-2(1H)-yl)-3-(3-(((1r,4r)-4-(2-(4-(3-(2,6-dioxopiperidin-3-yl)-1-methyl-1H-indazol-6-yl)piperazin-1-yl)-2-oxoethyl)cyclohexyl)oxy)-2-methylphenyl)picolinic acid]"
–,B (50% ≤ Ymin < 70%),–,< 100,"Cc1c(O[C@H]2CC[C@@H](CCCN3CCN(c4cccc5c(C6CCC(=O)NC6=O)nn(C)c45)CC3)CC2)cccc1-c1ccc(N2CCc3cccc(C(=O)Nc4nc5ccccc5s4)c3C2)nc1C(=O)O (stereo partly shown) [Compound 147b, 6-(8-(benzo[d]thiazol-2-ylcarbamoyl)-3,4-dihydroisoquinolin-2(1H)-yl)-3-(3-(((1r,4s)-4-(3-(4-(3-(2,6-dioxopiperidin-3-yl)-1-methyl-1H-indazol-7-yl)piperazin-1-yl)propyl)cyclohexyl)oxy)-2-methylphenyl)picolinic acid]"
–,B (50% ≤ Ymin < 70%),–,< 100,"Cc1c(O[C@H]2CC[C@H](CCCC(=O)N3CCN(c4cccc5c(C6CCC(=O)NC6=O)nn(C)c45)CC3)CC2)cccc1-c1ccc(N2CCc3cccc(C(=O)Nc4nc5ccccc5s4)c3C2)nc1C(=O)O (stereo partly shown) [Compound 214a, 6-(8-(benzo[d]thiazol-2-ylcarbamoyl)-3,4-dihydroisoquinolin-2(1H)-yl)-3-(3-(((1s,4r)-4-(4-(4-(3-(2,6-dioxopiperidin-3-yl)-1-methyl-1H-indazol-7-yl)piperazin-1-yl)-4-oxobutyl)cyclohexyl)oxy)-2-methylphenyl)picolinic acid]"
C (Ymin ≥ 70%),–,100 to 1000,–,"Cc1c(Oc2ccc(CCCNc3ccc4c(C5CCC(=O)NC5=O)nn(C)c4c3)cc2)cccc1-c1ccc(N2CCc3cccc(C(=O)Nc4nc5ccccc5s4)c3C2)nc1C(=O)O (stereo not shown) [Compound 123, 6-[8-(1,3-benzothiazol-2-ylcarbamoyl)-3,4-dihydro-1H-isoquinolin-2-yl]-3-[3-[4-[3-[[3-(2,6-dioxo-3-piperidyl)-1-methyl-indazol-6-yl]amino]propyl]phenoxy]-2-methyl-phenyl]pyridine-2-carboxylic acid]"
–,A (Ymin < 50%),–,< 100,"Cc1cc(OCCC[C@H]2CCN(CC(=O)Nc3ccc4c(C5CCC(=O)NC5=O)nn(C)c4c3)[C@@H](C)C2)ccc1-c1ccc(N2CCc3cccc(C(=O)Nc4nc5ccccc5s4)c3C2)nc1C(=O)O (stereo partly drawn) [Compound 344a, 6-[8-(1,3-benzothiazol-2-ylcarbamoyl)-3,4-dihydro-1H-isoquinolin-2-yl]-3-[4-[3-[(2S,4S)-1-[2-[[3-(2,6-dioxo-3-piperidyl)-1-methyl-indazol-6-yl]amino]-2-oxo-ethyl]-2-methyl-4-piperidyl]propoxy]-2-methyl-phenyl]pyridine-2-carboxylic acid]"
C (Ymin ≥ 70%),C (Ymin ≥ 70%),1000 to 10000,1000 to 10000,"Cc1c(Oc2ccc(CCC(=O)Nc3ccc4c(C5CCC(=O)NC5=O)nn(C)c4c3)cc2)cccc1-c1ccc(N2CCc3cccc(C(=O)Nc4nc5ccccc5s4)c3C2)nc1C(=O)O (stereo not shown) [Compound 107, 6-[8-(1,3-benzothiazol-2-ylcarbamoyl)-3,4-dihydro-1H-isoquinolin-2-yl]-3-[3-[4-[3-[[3-(2,6-dioxo-3-piperidyl)-1-methyl-indazol-6-yl]amino]-3-oxo-propyl]phenoxy]-2-methyl-phenyl]pyridine-2-carboxylic acid]"
–,A (Ymin < 50%),–,< 100,"Cc1c(OC[C@@H]2CCC3(CCN(CC(=O)Nc4ccc5c(C6CCC(=O)NC6=O)nn(C)c5c4)CC3)C2)cccc1-c1ccc(N2CCc3cccc(C(=O)Nc4nc5ccccc5s4)c3C2)nc1C(=O)O (single isomer, unassigned) [Compound 262b]"
–,A (Ymin < 50%),–,< 100,"Cc1c(O[C@H]2CC[C@H](CCCN3CCN(c4ccc5c(C6CCC(=O)NC6=O)nn(C)c5c4)C[C@@H]3C(F)(F)F)CC2)cccc1-c1ccc(N2CCc3cccc(C(=O)Nc4nc5ccccc5s4)c3C2)nc1C(=O)O (stereo partly drawn) [Compound 347a, 6-(8-(benzo[d]thiazol-2-ylcarbamoyl)-3,4-dihydroisoquinolin-2(1H)-yl)-3-(3-(((1s,4r)-4-(3-((2R)-4-(3-(2,6-dioxopiperidin-3-yl)-1-methyl-1H-indazol-6-yl)-2-(trifluoromethyl)piperazin-1-yl)propyl)cyclohexyl)oxy)-2-methylphenyl)picolinic acid]"
C (Ymin ≥ 70%),B (50% ≤ Ymin < 70%),100 to 1000,< 100,"Cc1c(Oc2ccc(CC(F)(F)CN3CCN(c4ccc5c(C6CCC(=O)NC6=O)nn(C)c5c4)CC3)cc2)cccc1-c1ccc(N2CCc3cccc(C(=O)Nc4nc5ccccc5s4)c3C2)nc1C(=O)O (stereo not shown) [Compound 234, 6-[8-(1,3-benzothiazol-2-ylcarbamoyl)-3,4-dihydro-1H-isoquinolin-2-yl]-3-[3-[4-[3-[4-[3-(2,6-dioxo-3-piperidyl)-1-methyl-indazol-6-yl]piperazin-1-yl]-2,2-difluoro-propyl]phenoxy]-2-methyl-phenyl]pyridine-2-carboxylic acid]"
C (Ymin ≥ 70%),B (50% ≤ Ymin < 70%),100 to 1000,< 100,"Cc1c(Oc2ccccc2CCC(=O)Nc2cccc3c(C4CCC(=O)NC4=O)nn(C)c23)cccc1-c1ccc(N2CCc3cccc(C(=O)Nc4nc5ccccc5s4)c3C2)nc1C(=O)O (stereo not shown) [Compound 243, 6-(8-(benzo[d]thiazol-2-ylcarbamoyl)-3,4-dihydroisoquinolin-2(1H)-yl)-3-(3-(2-(3-((3-(2,6-dioxopiperidin-3-yl)-1-methyl-1H-indazol-7-yl)amino)-3-oxopropyl)phenoxy)-2-methylphenyl)picolinic acid]"

SMILES,Ymin (6 h),Ymin (24 h),"DC50 (6 h, read-out: EC50 (6 h)) [nM]","DC50 (24 h, read-out: EC50 (24 h)) [nM]"
"Cc1c(OCC[C@H](C)C2CCN(CC(=O)Nc3cccc4c(C5CCC(=O)NC5=O)nn(C)c34)CC2)cccc1-c1ccc(N2CCc3cccc(C(=O)Nc4nc5ccccc5s4)c3C2)nc1C(=O)O (stereo partly drawn) [Compound 173a, 6-(8-(benzo[d]thiazol-2-ylcarbamoyl)-3,4-dihydroisoquinolin-2(1H)-yl)-3-(3-((3S)-3-(1-(2-((3-(2,6-dioxopiperidin-3-yl)-1-methyl-1H-indazol-7-yl)amino)-2-oxoethyl)piperidin-4-yl)butoxy)-2-methylphenyl)picolinic acid]",–,B (50% ≤ Ymin < 70%),–,< 100
